For the experiment, the system named is ATF4 luciferase reporter in HEK293T cells. Put plainly: ATF4-Luc assay (ATF4 luciferase reporter, tunicamycin-treated HEK293T cells). It counts as cell-based, human. The note with it: Homo sapiens, HEK-293T; HEK293T cells carrying the ATF4 luciferase reporter, 1 μg/mL tunicamycin, 7 hours. Background: A reporter such as luciferase makes a cellular process visible.
In the case of `O=C(COc1ccc(Cl)c(F)c1)NC12CCC(NC(=O)Cc3cccc(C(F)(F)F)c3)(CC1)C(O)C2` (stereo not shown) [Compound 321, 2-(4-chloro-3-fluorophenoxy)-N-(3-hydroxy-4-{2-[3-(trifluoromethyl)phenyl]acetamido}bicyclo[2.2.2]octan-1-yl)acetamide], the half-maximal effective concentration (EC50) (commonly the concentration at which the effect is half-maximal) was 500 to 2000 nM. Then `O=C(COc1ccc(Cl)c(F)c1)NC12CCC(NC(=O)Cc3ccc(C(F)(F)F)cc3)(CC1)C(O)C2` (stereo not shown) [Compound 322, 2-(4-chloro-3-fluorophenoxy)-N-(3-hydroxy-4-{2-[4-(trifluoromethyl)phenyl]acetamido}bicyclo[2.2.2]octan-1-yl)acetamide], with 50 to 250 nM; and `O=C(COc1ccc(Cl)c(F)c1)NC12CCC(NC(=O)Cc3ccc4c(c3)OCO4)(CC1)C(O)C2` (stereo not shown) [Compound 323, 2-(2H-1,3-benzodioxol-5-yl)-N-{4-[2-(4-chloro-3-fluorophenoxy)acetamido]-2-hydroxybicyclo[2.2.2]octan-1-yl}acetamide], with > 2000 nM; and `O=C(COc1ccc(Cl)c(F)c1)NC12CCC(NC(=O)Cc3cccnc3)(CC1)C(O)C2` (stereo not shown) [Compound 324, 2-(4-chloro-3-fluorophenoxy)-N-{3-hydroxy-4-[2-(pyridin-3-yl)acetamido]bicyclo[2.2.2]octan-1-yl}acetamide], with > 2000 nM. Next, `CS(=O)(=O)c1ccc(CC(=O)NC23CCC(NC(=O)COc4ccc(Cl)c(F)c4)(CC2)CC3O)cc1` (stereo not shown) [Compound 325, 2-(4-chloro-3-fluorophenoxy)-N-(3-hydroxy-4-{2-[4-(methanesulfonyl)phenyl]acetamido}bicyclo[2.2.2]octan-1-yl)acetamide]: > 2000 nM. Next, `O=C(COc1ccc(Cl)c(F)c1)NC12CCC(NC(=O)Cc3ccc(OC(F)(F)F)cc3)(CC1)C(O)C2` (stereo not shown) [Compound 326, 2-(4-chloro-3-fluorophenoxy)-N-(3-hydroxy-4-{2-[4-(trifluoromethoxy)phenyl]acetamido}bicyclo[2.2.2]octan-1-yl)acetamide]: 50 to 250 nM; `O=C(COc1ccc(Cl)c(F)c1)NC12CCC(NC(=O)Cc3cccc(OC(F)(F)F)c3)(CC1)C(O)C2` (stereo not shown) [Compound 327, 2-(4-chloro-3-fluorophenoxy)-N-(3-hydroxy-4-{2-[3-(trifluoromethoxy)phenyl]acetamido}bicyclo[2.2.2]octan-1-yl)acetamide]: > 2000 nM; `O=C(COc1ccc(Cl)c(F)c1)NC12CCC(NC(=O)Cc3ccncc3)(CC1)C(O)C2` (stereo not shown) [Compound 328, 2-(4-chloro-3-fluorophenoxy)-N-{3-hydroxy-4-[2-(pyridin-4-yl)acetamido]bicyclo[2.2.2]octan-1-yl}acetamide]: > 2000 nM. Consider `O=C(COc1ccc(F)c(F)c1)NC12CCC(NC(=O)COc3ccc(Cl)c(F)c3)(CC1)C(O)C2` (stereo not shown) [Compound 329, 2-(4-chloro-3-fluorophenoxy)-N-{4-[2-(3,4-difluorophenoxy)acetamido]-2-hydroxybicyclo[2.2.2]octan-1-yl}acetamide], for which the EC50 is < 10 nM. For the compound `O=C(COc1ccc(F)cc1)NC12CCC(NC(=O)COc3ccc(Cl)c(F)c3)(CC1)C(O)C2` (stereo not shown) [Compound 330, 2-(4-chloro-3-fluorophenoxy)-N-{4-[2-(4-fluorophenoxy)acetamido]-2-hydroxybicyclo[2.2.2]octan-1-yl}acetamide], the EC50 is < 10 nM. Then `O=C(COc1ccc(Cl)c(F)c1)NC12CCC(NCCOc3ccc(F)cc3)(CC1)C(O)C2` (stereo not shown) [Compound 331, 2-(4-chloro-3-fluorophenoxy)-N-(4-{[2-(4-fluorophenoxy)ethyl]amino}-3-hydroxybicyclo[2.2.2]octan-1-yl)acetamide], with < 10 nM. With `O=C(COc1ccc(S(F)(F)(F)(F)F)nc1)NC12CC(NC(=O)COc3ccc(Cl)c(F)c3)(C1)C2` [Compound 332, 2-(4-chloro-3-fluorophenoxy)-N-[3-(2-{[6-(pentafluoro-X 6-sulfanyl)pyridin-3-yl]oxy}acetamido)bicyclo[1.1.1]pentan-1-yl]acetamide], the 50% effective concentration (EC50) lay in the range of 10 to 50 nM. As for `O=C(COc1ccc(Cl)c(F)c1)NC12CCC(NC(=O)COc3ccnn(CC(F)(F)F)c3=O)(CC1)C(O)C2` (stereo not shown) [Compound 333, 2-(4-chloro-3-fluorophenoxy)-N-[3-hydroxy-4-(2-{[3-oxo-2-(2,2,2-trifluoroethyl)-2,3-dihydropyridazin-4-yl]oxy}acetamido)bicyclo[2.2.2]octan-1-yl]acetamide], the 50% effective concentration (EC50) was in the range of 250 to 500 nM. Then `O=C(COc1ccc(Cl)c(F)c1)NC12CCC(NC(=O)COc3cnn(CC(F)(F)F)c(=O)c3)(CC1)C(O)C2` (stereo not shown) [Compound 334, 2-(4-chloro-3-fluorophenoxy)-N-[3-hydroxy-4-(2-{[6-oxo-1-(2,2,2-trifluoroethyl)-1,6-dihydropyridazin-4-yl]oxy}acetamido)bicyclo[2.2.2]octan-1-yl]acetamide], with 500 to 2000 nM; and `O=C(COc1ccc(Cl)c(F)c1)NC12CCC(NCCOc3ccc(Cl)c(Cl)c3)(CC1)C(O)C2` (stereo not shown) [Compound 335, 2-(4-chloro-3-fluorophenoxy)-N-(4-{[2-(3,4-dichlorophenoxy)ethyl]amino}-3-hydroxybicyclo[2.2.2]octan-1-yl)acetamide], with < 10 nM; and `O=C(COc1ccc(Cl)c(F)c1)NC12CCC(NCCOc3ccc(Cl)cc3)(CC1)C(O)C2` (stereo not shown) [Compound 336, 2-(4-chloro-3-fluorophenoxy)-N-(4-{[2-(4-chlorophenoxy)ethyl]amino}-3-hydroxybicyclo[2.2.2]octan-1-yl)acetamide], with < 10 nM. Consider `CC1(O)CC2(NC(=O)COc3ccc(Cl)c(F)c3)CCC1(NC(=O)COc1ccc(C(F)(F)F)nc1)CC2` (stereo not shown) [Compound 338, 2-(4-chloro-3-fluorophenoxy)-N-[3-hydroxy-3-methyl-4-(2-{[6-(trifluoromethyl)pyridin-3-yl]oxy}acetamido)bicyclo[2.2.2]octan-1-yl]acetamide], for which the EC50 is 10 to 50 nM.

On to `CC1(O)CC2(NC(=O)COc3ccc(Cl)c(F)c3)CCC1(NC(=O)COc1ccc(Cl)c(F)c1)CC2` (stereo not shown) [Compound 339, N,N′-(2-hydroxy-2-methylbicyclo[2.2.2]octane-1,4-diyl)bis[2-(4-chloro-3-fluorophenoxy)acetamide]], for which the EC50 is < 10 nM. Next, `O=C(Cc1ccc(OC(F)(F)F)cc1)NC12CCC(NC(=O)COc3ccc(Cl)c(F)c3)(CC1)C(O)C2` (stereo not shown) [Compound 340, 2-(4-chloro-3-fluorophenoxy)-N-(2-hydroxy-4-{2-[4-(trifluoromethoxy)phenyl]acetamido}bicyclo[2.2.2]octan-1-yl)acetamide]: 50 to 250 nM.

Consider `O=C(COc1ccc(Cl)c(F)c1)NC12CC(NC(=O)Cc3ccc(C(F)(F)F)cc3)(C1)C2` [Compound 341, 2-(4-chloro-3-fluorophenoxy)-N-(3-{2-[4-(trifluoromethyl)phenyl]acetamido}bicyclo[1.1.1]pentan-1-yl)acetamide], for which the half-maximal effective concentration (EC50) lay within 50 to 250 nM. Then `O=C(COc1ccc(Cl)c(F)c1)NC12CC(NC(=O)Cc3ccc(C(F)(F)F)nc3)(C1)C2` [Compound 342, 2-(4-chloro-3-fluorophenoxy)-N-(3-{2-[6-(trifluoromethyl)pyridin-3-yl]acetamido}bicyclo[1.1.1]pentan-1-yl)acetamide], with 250 to 500 nM; and `N#Cc1ccc(CNC23CCC(NC(=O)COc4ccc(Cl)c(F)c4)(CC2)CC3O)cc1` (stereo not shown) [Compound 343, 2-(4-chloro-3-fluorophenoxy)-N-(4-{[(4-cyanophenyl)methyl]amino}-3-hydroxybicyclo[2.2.2]octan-1-yl)acetamide], with 50 to 250 nM.

Source of the values: patent publication US20240166652A1, “MODULATORS OF THE INTEGRATED STRESS PATHWAY” (Calico Life Sciences LLC, priority 2017, published 2024).
